Reference: patent US20050209195A1, “Indolinone derivatives” (Cell Therapeutics Europe S.r.I, priority 2004, published 2005)

Key:
[1] = target: T1, Human cKit Tyrosine Kinase Receptor (human cKit RTK-catalytic domain) (Homo sapiens, UniProt P10721); experiment: DELFIA cKit Tyrosine Kinase Assay (cell-free); format: biochemical; settings: cell-free DELFIA, 25 ng cKit TKR, 150 μM ATP, 20 minutes at 30° C.; read-out: IC50
T1 construct: human cKit RTK-catalytic domain; purchased Panvera-Invitrogen P3080
T1 sequence (P10721 589-937 limits assumed): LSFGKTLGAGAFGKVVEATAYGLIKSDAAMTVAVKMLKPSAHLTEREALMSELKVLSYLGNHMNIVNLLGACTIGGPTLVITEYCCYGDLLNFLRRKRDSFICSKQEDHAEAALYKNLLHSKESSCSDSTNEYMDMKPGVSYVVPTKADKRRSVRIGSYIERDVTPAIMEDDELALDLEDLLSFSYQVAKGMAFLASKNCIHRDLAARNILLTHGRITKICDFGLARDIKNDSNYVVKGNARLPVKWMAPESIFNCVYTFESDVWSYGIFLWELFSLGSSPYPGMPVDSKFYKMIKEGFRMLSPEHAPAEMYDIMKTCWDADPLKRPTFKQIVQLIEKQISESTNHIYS
Description: The compounds of the invention were tested with a dedicated cell-free kinase assay for the evaluation of the inhibiting activity on tyrosine kinases.
In more detail, the assay was a DELFIA™ (Dissociation Enhanced Time-Resolved Fluorometric Assay) Tyrosine Kinase Assay™ (PerkinElmer), a highly sensitive, reproducible ELISA assay that allows to evaluate the activity of a tyrosine kinase.
Human cKit Tyrosine Kinase Receptor (human cKit RTK-catalytic domain), commercially available from Panvera-Invitrogen (Cat. N^o. P3080), was used as the tyrosine kinase.
After 1 hour incubation at room temperature and three washings with 1×DELFIA Wash Buffer (PerkinElmer), the phosphotyrosine residues of the acceptor were detected with an europium-labelled anti-phosphotyrosine monoclonal antibody (DELFIA Eu-N1 labelled anti-phosphotyrosine antibody PT66, PerkinElmer) and, after a further hour incubation at room temperature and three washings with 1×DELFIA Wash Buffer, overall phosphorylation of biotinylated polyGAT was determined by addition of Enhancement Solution (PerkinElmer) and fluorimetric analysis of the plates (α-Fusion FP HT, PerkinElmer) in the “Time-Resolved Fluorescence” mode.

[2] = target: T2, human Ret TKR-catalytic domain (Homo sapiens, UniProt P07949); experiment: DELFIA Ret Kinase Assay (cell-free); format: biochemical; settings: cell-free DELFIA, 50 ng Ret TKR, 3 μM ATP, 10 min. at 30° C.; read-out: IC50
T2 construct: human Ret TKR-catalytic domain; purchased ProQinase
T2 sequence (P07949 724-1016 limits assumed): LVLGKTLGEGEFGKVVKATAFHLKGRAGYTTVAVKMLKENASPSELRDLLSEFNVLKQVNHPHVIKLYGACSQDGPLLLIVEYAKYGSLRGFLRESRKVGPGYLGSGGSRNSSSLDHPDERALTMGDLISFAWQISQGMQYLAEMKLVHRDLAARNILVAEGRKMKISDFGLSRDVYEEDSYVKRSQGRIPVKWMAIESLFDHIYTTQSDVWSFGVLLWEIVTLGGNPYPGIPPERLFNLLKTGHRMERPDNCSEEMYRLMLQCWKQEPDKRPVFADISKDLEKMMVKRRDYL
Description: In order to evidence and quantify inhibitory activity on Ret tyrosine kinase, the most representative compounds of the invention were tested with a dedicated DELFIA kinase assay, using a human tyrosine-kinase receptor (Ret TKR) recombinant form (human Ret TKR-catalytic domain) available from ProQinase as the tyrosine kinase.
After 10 min. incubation at 30° C., the kinase reactions were worked up as in the DELFIA cKit Kinase Assay.

[3] = test system: NIH3T3^MEN2A(C634R) cells; experiment: Survival curves by Coulter Counter cell count, 72 h; format: cell-based, murine; settings: Mus musculus, NIH3T3MEN2A, 72 h treatment, read-out: Cont at 72 h IC50
Description: (§1) NIH3T3 Murine fibroblasts and the transfected line NIH3T3^MEN2A(C634R) were treated with increasing concentrations of the compounds of the invention for 72 h. Survival curves were obtained by Coulter Counter cell count. IC50s calculated from said curves are reported in Table 9: the higher sensitivity of the oncoprotein-expressing cell line is evident. The reversal of the morphologically transformed phenotype of NIH3T3^MEN2A (C634R) cells in the presence of the compounds of the invention was evaluated by contrast phase microscopy after 24 h treatment and photographically documented.

[4] = test system: NIH3T3^MEN2A(C634R) cells; experiment: Reversal of morphologically transformed phenotype, contrast phase microscopy, 24 h; format: cell-based, murine; settings: 24 h treatment; for minimal effective concentration: Mus musculus, NIH3T3MEN2A, read-out: Morphology a 24 h: concentration from which reversal was observed
Description: as §1

[5] = test system: NIH3T3 cells transformed by oncoprotein Ret/ptc1; settings: cited from earlier work
[6] = test system: Ret/MEN2A (mutC634R and mutC634W); settings: cited from earlier work
Ret/MEN2B (mutM918T) = Ret/MEN2B (mutM918T) (Homo sapiens, UniProt P07949, M918T); settings: cited from earlier work
Ret/MEN2B (mutM918T), sequence (P07949 29-1114 M918T): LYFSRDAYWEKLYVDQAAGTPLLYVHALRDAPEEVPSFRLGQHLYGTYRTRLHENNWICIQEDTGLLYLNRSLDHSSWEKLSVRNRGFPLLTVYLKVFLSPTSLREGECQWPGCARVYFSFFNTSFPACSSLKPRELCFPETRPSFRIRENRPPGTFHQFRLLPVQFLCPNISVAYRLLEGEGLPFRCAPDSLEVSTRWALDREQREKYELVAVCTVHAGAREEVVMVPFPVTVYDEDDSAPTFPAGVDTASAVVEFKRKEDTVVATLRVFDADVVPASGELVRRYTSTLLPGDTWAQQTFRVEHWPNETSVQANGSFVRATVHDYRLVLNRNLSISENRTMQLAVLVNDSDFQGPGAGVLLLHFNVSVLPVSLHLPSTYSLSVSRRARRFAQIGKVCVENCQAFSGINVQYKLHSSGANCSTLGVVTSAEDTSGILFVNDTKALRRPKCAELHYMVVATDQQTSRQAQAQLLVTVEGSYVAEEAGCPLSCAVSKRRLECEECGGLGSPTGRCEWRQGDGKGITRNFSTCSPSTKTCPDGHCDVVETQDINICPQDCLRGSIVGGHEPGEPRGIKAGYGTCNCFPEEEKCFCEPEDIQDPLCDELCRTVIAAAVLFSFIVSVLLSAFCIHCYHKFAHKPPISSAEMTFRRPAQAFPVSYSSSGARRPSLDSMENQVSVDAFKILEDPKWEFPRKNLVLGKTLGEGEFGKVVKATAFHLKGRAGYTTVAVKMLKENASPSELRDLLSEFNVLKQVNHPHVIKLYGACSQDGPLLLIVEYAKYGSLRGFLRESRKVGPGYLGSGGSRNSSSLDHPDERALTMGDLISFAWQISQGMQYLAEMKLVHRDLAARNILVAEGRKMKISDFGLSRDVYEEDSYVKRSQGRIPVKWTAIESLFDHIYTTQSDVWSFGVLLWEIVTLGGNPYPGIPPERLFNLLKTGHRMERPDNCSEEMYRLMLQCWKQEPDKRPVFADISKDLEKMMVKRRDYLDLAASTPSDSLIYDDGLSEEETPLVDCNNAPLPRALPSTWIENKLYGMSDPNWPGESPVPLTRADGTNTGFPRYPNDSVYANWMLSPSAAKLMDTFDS

Met = Met (Homo sapiens, UniProt P08581); settings: cited from earlier work
Met, sequence (P08581 25-1390): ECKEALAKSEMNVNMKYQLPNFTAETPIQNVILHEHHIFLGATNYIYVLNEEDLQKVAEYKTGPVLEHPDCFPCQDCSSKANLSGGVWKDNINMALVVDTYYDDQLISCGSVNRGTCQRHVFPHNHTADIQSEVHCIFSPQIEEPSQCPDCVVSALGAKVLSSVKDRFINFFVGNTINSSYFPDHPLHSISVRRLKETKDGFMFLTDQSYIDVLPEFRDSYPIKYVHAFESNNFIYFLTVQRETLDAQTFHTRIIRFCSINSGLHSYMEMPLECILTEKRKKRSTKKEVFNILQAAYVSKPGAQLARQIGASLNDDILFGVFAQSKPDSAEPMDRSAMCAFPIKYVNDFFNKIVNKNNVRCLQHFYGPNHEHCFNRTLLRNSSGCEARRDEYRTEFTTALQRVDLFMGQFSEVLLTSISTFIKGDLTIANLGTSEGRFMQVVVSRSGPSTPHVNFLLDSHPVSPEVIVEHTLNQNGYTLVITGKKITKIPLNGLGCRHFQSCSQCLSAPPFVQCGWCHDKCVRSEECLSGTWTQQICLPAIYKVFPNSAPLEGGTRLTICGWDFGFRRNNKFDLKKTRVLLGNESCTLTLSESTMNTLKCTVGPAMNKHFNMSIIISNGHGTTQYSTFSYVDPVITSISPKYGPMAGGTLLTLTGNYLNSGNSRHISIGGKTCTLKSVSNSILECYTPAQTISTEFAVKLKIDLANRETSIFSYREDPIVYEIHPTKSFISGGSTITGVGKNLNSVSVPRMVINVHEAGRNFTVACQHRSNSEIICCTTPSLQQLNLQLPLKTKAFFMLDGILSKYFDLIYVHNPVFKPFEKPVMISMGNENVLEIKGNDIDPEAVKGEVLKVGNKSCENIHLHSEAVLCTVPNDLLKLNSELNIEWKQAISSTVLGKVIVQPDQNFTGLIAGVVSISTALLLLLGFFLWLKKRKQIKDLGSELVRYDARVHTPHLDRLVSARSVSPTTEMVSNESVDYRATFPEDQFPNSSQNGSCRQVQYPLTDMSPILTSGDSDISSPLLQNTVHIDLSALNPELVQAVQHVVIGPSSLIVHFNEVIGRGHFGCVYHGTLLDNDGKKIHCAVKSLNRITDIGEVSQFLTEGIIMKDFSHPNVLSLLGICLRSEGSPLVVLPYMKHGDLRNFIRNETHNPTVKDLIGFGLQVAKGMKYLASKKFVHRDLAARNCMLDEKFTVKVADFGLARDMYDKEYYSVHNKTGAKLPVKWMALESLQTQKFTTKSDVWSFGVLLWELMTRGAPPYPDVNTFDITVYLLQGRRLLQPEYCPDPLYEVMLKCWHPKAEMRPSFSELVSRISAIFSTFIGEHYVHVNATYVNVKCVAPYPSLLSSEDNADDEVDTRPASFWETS

PDGF-R = settings: cited from earlier work
FGF-R1 = FGF-R1 (Homo sapiens, UniProt P11362); settings: cited from earlier work
FGF-R1, sequence (P11362 22-822, species assumed): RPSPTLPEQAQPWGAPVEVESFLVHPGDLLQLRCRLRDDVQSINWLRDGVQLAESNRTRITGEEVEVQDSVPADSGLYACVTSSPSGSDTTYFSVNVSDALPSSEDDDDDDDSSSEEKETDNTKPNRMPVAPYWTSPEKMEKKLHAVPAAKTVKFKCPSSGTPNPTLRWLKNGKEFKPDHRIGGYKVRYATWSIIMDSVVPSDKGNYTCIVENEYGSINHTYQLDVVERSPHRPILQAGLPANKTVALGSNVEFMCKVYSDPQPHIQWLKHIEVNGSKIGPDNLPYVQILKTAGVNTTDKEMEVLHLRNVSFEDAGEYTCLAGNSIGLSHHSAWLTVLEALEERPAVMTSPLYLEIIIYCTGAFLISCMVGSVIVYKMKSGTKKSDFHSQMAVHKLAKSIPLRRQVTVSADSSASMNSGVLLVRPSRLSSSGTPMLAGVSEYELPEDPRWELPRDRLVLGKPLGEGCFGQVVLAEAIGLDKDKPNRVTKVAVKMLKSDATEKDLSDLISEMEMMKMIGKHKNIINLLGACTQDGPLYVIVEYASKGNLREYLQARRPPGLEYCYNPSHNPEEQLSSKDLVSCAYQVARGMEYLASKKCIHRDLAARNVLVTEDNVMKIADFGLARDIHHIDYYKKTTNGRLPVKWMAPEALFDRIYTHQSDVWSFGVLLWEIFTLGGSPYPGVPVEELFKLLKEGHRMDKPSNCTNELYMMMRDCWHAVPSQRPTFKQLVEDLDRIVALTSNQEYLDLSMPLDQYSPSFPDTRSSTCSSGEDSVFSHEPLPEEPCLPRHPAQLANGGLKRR

FGF-R3 = FGF-R3 (Homo sapiens, UniProt P22607); settings: cited from earlier work
FGF-R3, sequence (P22607 23-806, species assumed): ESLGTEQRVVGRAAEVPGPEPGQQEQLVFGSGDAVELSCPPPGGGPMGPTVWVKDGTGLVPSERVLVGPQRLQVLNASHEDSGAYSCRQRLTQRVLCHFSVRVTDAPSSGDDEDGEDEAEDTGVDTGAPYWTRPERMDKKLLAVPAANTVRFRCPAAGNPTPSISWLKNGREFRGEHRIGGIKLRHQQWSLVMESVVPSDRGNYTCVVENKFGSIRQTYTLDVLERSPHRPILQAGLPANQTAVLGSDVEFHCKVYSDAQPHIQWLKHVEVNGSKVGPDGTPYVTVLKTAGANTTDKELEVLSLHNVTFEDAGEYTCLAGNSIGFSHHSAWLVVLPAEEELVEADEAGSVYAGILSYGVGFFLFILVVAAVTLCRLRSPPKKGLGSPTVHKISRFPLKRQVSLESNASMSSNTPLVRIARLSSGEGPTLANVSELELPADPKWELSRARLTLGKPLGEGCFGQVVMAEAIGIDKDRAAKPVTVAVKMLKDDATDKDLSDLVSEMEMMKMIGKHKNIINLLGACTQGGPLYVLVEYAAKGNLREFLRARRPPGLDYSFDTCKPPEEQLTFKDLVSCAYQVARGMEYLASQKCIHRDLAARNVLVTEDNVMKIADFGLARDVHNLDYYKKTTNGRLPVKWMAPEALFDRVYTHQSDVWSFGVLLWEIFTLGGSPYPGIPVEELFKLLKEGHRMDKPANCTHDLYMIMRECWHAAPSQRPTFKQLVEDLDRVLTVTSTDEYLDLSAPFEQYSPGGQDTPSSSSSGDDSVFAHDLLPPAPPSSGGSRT

Kit (c-Kit and mutΔ559) = settings: cited from earlier work
[7] = test system: tyrosine kinases Ret/MEN2A, Ret/MEN2B, Met, PDGF-R, FGF-R1, FGF-R3 and Kit; settings: cited from earlier work
[8] = test system: cells transformed by Ret/MEN2A, Ret/MEN2B, Met, PDGF-R, FGF-R1, FGF-R3 and Kit; settings: cited from earlier work

SMILES	IC50 [1] [µM]	IC50 [2] [µM]	IC50 [3] [µM]	Morphology a 24 h [4]	minimal effective concentration [4] [µM]	restoring the normal phenotype in transformed cells [5]	inhibition of self-phosphorylation [6]	inhibition of self-phosphorylation (Ret/MEN2B (mutM918T))	inhibition of self-phosphorylation (Met)	inhibition of self-phosphorylation (PDGF-R)	inhibition of self-phosphorylation (FGF-R1)	inhibition of self-phosphorylation (FGF-R3)	inhibition of self-phosphorylation (Kit (c-Kit and mutΔ559))	down regulation of tyrosine kinase expression [7]	restoring the phenotype of transformed cells [8]	melting point [°C]
COc1cc2c(cc1OC)/C(=C\c1ccc(O)cc1)C(=O)N2 [(E)-1,3-dihydro-4-hydroxybenzylidene-5,6-dimethoxy-1H-indol-2-one]	2.37 ± 0.68	3.67	3.6 ± 1.6	REVERSAL	≥ 6	restoring the normal phenotype	fully inhibiting	fully inhibiting	fully inhibiting	fully inhibiting	fully inhibiting	fully inhibiting	fully inhibiting	down regulating their expression	restoring the phenotype of cells transformed by them	–
COc1cc2c(cc1OC)/C(=C\c1ccc(OC(=O)N3CCC(N4CCCCC4)CC3)cc1)C(=O)N2 [B.5, 4-(1′-Piperidinyl)-1-piperidinecarboxylic Acid, (E)-4-(5,6-dimethoxy-2-oxo-1,2-dihydro-indol-3-ylidenemethyl)phenyl Ester]	4.68	2.17	2 ± 0.7	REVERSAL	≥ 5	–	–	–	–	–	–	–	–	–	–	235 to 237
COc1cc2c(cc1OC)/C(=C\c1ccc(OC(=O)N3CCN(C)CC3)cc1)C(=O)N2 [Example B.1, (E)-4-methyl-piperazine-1-carboxylic Acid, 4-(5,6-dimethoxy-2-oxo-1,2-dihydro-indol-3-ylidenemethyl)phenyl Ester]	4.46	13.3	2.8 ± 0.5	REVERSAL	≥ 10	–	–	–	–	–	–	–	–	–	–	198 to 200
COc1cc2c(cc1OC)/C(=C\c1ccc(OP(=O)(O)O)cc1)C(=O)N2 [Example C.1, (E)-4-(5,6-dimethoxy-2-oxo-1,2-dihydro-indol-3-ylidenemethyl)phenyl Phosphoric Acid]	51.8	2.61	3.9 ± 0.25	REVERSAL	≥ 10	–	–	–	–	–	–	–	–	–	–	218 to 220
COc1ccc(OC(=O)Oc2ccc(/C=C3/C(=O)Nc4cc(OC)c(OC)cc43)cc2)cc1 [Example H.1, (E)-4-(5,6-dimethoxy-2-oxo-1,2-dihydro-indol-3-ylidenemethyl)phenyl, 4-methoxyphenyl Carbonate]	1.19	4.43	3.3 ± 0.03	REVERSAL	≥ 10	–	–	–	–	–	–	–	–	–	–	165 to 167
